Source: publication PMC6151385, “Simultaneous Determination of Seven Phenolic Acids in Rat Plasma Using UHPLC-ESI-MS/MS after Oral Administration of Echinacea purpurea Extract” (Molecules : A Journal of Synthetic Chemistry and Natural …, 2017)

Experiments:
[1] = Pharmacokinetic study of seven phenolic acids in rat plasma after oral administration of E. purpurea extract (UHPLC-ESI-MS/MS); format: in vivo; settings: male SD rats, oral E. purpurea extract 10 g/kg, n = 12, mean ± SD; for AUC(0-inf) / AUC(0-t) / Cmax / Tmax / half-life: Sprague-Dawley, rat
Description: Twelve male Sprague-Dawley (SD) rats (body weight 220 ± 20 g) were provided by Heilongjiang University of Chinese Medicine (Harbin, China). Each rat fasted 12 h before administration, with free drinking during the experiment. Blood samples were obtained from rats after oral administration of the extract of E. purpurea with a dose of 10 g/kg body weight. Blood samples (0.25 mL) of the retinal venous plexus were taken at 0.083, 0.25, 0.75, 1.0, 1.5, 2, 3, 4, 6, 8, 12, 24 and 36 h, then moved immediately into a 0.5 mL centrifuge tube that was spread with heparin at each time point. Meanwhile, the animal blood was centrifuged at 13,000 rpm for 5 min at 4 °C. The plasma was frozen in a −20 °C refrigerator in case of deterioration.
First, the frozen plasma was thawed at room temperature and then a liquid–liquid extraction (LLE) method was utilized. Then, a 100 μL aliquot of each plasma sample was removed except for the calibration standards which was mixed with 10 μL IS into a 10 mL glass tube. We continued by adding 100 μL methanol and 100 μL 30% formic acid, vortex-mixing for 1 min, then extracted 3 mL ethyl acetate, vortex-mixing for 3 min, centrifuged for 5 min (3500 rpm), and transferred the upper organic layer into a new tube. The layer of ethyl acetate was dried with a stream of nitrogen, the dry residue was dissolved with a 100 μL mobile phase, vortexed for 2 min and samples were filtered by a 0.22 μm microporous membrane. A 10 μL aliquot was injected into the UHPLC-ESI-MS/MS system.
The rat plasma concentration-time curves of seven compounds were plotted. After oral administration of E. purpurea extract in twelve rats, the maximum drug concentration in rat plasma (Cmax) and the time to reach maximum drug concentration (Tmax) were directly obtained from concentration-time data. The elimination rate constant (Ke) was calculated by linear regression of the terminal points in a semi-log plot of the plasma concentration against time. The elimination half-life (T1/2) was calculated by the formula T1/2 = 0.693/Ke. Other pharmacokinetic parameters including the area under the concentration-time curve (AUC0→t), and the area under the plasma concentration-time curve to time infinity (AUC0→∞) were calculated using non-compartmental pharmacokinetics analysis.

[2] = Stability of the analytes in rat plasma QC samples under different storage conditions; format: physicochemical; settings: post-preparation samples, 12 h at 4 °C, n = 6
Description: The post-preparation samples were analyzed after storage for 12 h at 4 °C. The peak area ratio response of stability samples was determined and versus those freshly prepared. For all stability results, the analyzing samples were considered stable when the percentage of relative error (RE) was within ±15% compared with freshly prepared QC samples.

[3] = as above; format: physicochemical; settings: n = 6; for Stability (RE%) Short-Term: 4 h at room temperature; for Stability (RE%) Freeze-Thaw: three freeze-thaw cycles (−20 °C / ambient); for Stability (RE%) Long-Term: −20 °C for 2 weeks

SMILES	AUC(0-inf) [1]	AUC(0-t) [1]	Cmax [1]	Tmax [1]	half-life [1]	Stability (RE%) Post-Preparative ([2]; high QC)	Stability (RE%) Post-Preparative ([2]; low QC)	Stability (RE%) Post-Preparative ([2]; medium QC)	Stability (RE%) Short-Term ([3]; high QC)	Stability (RE%) Freeze-Thaw ([3]; high QC)	Stability (RE%) Long-Term ([3]; high QC)	Stability (RE%) Short-Term ([3]; low QC)	Stability (RE%) Freeze-Thaw ([3]; low QC)	Stability (RE%) Long-Term ([3]; low QC)	Stability (RE%) Short-Term ([3]; medium QC)	Stability (RE%) Freeze-Thaw ([3]; medium QC)	Stability (RE%) Long-Term ([3]; medium QC)	T1/2 [1]
O=C(O)/C=C/c1ccc(O)c(O)c1 [Caffeic acid, caffeic acid]	9330 ± 442 ng·h/mL	9220 ± 453 ng·h/mL	855 ± 35.9 ng/mL	8 h	5.31 ± 0.5 h	9.83%	10.35%	3.89%	6.12%	6.15%	−1.54%	7.45%	7.79%	6.01%	−0.16%	2.18%	1.00%	–
COc1cc(/C=C/C(=O)O)ccc1O [Ferulic acid, ferulic acid]	6020 ± 498 ng·h/mL	5620 ± 453 ng·h/mL	359 ± 43.8 ng/mL	8 h	8.48 ± 0.71 h	−4.91%	−0.89%	4.84%	−8.77%	−13.12%	−1.89%	−4.21%	−7.10%	7.93%	4.61%	−3.80%	6.80%	–
COc1cc(C(=O)O)cc(OC)c1O [Syringic acid, syringic acid]	1950 ± 164 ng·h/mL	1650 ± 133 ng·h/mL	122 ± 16.4 ng/mL	1.54 ± 0.14 h	13.2 ± 1.66 h	−6.08%	−10.74%	−7.64%	−5.73%	−2.61%	−1.30%	−1.95%	−3.75%	−0.66%	−1.50%	4.48%	−0.79%	–
COc1cc(C(=O)O)ccc1O [Vanillic acid, vanillic acid]	3440 ± 234 ng·h/mL	3140 ± 264 ng·h/mL	228 ± 11.9 ng/mL	0.75 h	–	−8.03%	9.11%	−6.34%	1.59%	5.28%	−0.32%	2.24%	−6.56%	2.91%	−0.67%	5.74%	−0.37%	8.89 ± 1.12 h

The next lines start with the values.

AUC(0-inf) [1]	AUC(0-t) [1]	Cmax [1]	Tmax [1]	half-life [1]	Stability (RE%) Post-Preparative ([2]; high QC)	Stability (RE%) Post-Preparative ([2]; low QC)	Stability (RE%) Post-Preparative ([2]; medium QC)	Stability (RE%) Short-Term ([3]; high QC)	Stability (RE%) Freeze-Thaw ([3]; high QC)	Stability (RE%) Long-Term ([3]; high QC)	Stability (RE%) Short-Term ([3]; low QC)	Stability (RE%) Freeze-Thaw ([3]; low QC)	Stability (RE%) Long-Term ([3]; low QC)	Stability (RE%) Short-Term ([3]; medium QC)	Stability (RE%) Freeze-Thaw ([3]; medium QC)	Stability (RE%) Long-Term ([3]; medium QC)	T1/2 [1]	SMILES
2050 ± 116 ng·h/mL	1930 ± 123 ng·h/mL	127 ± 18.1 ng/mL	0.77 ± 0.07 h	7.45 ± 0.87 h	−4.01%	9.29%	−5.47%	4.80%	−0.52%	3.65%	2.03%	−0.11%	−2.93%	10.18%	6.57%	2.30%	–	O=C(O)c1ccc(O)c(O)c1 [3,4-Dihydroxy benzoic acid, 3,4-dihydroxybenzoic acid]
1950 ± 176 ng·h/mL	1640 ± 122 ng·h/mL	145 ± 11.6 ng/mL	1.96 ± 0.14 h	14.9 ± 5.37 h	7.71%	−6.42%	10.47%	−2.50%	−1.01%	2.81%	10.62%	10.03%	−3.31%	−0.46%	2.63%	0.21%	–	O=C(O)c1ccc(O)cc1 [4-Hydroxy benzoic acid, 4-hydroxybenzoic acid]
3440 ± 218 ng·h/mL	3130 ± 156 ng·h/mL	293 ± 16.4 ng/mL	0.75 h	9.32 ± 1.29 h	7.12%	8.52%	11.50%	−4.81%	−8.78%	−5.30%	−3.59%	−7.57%	−6.75%	1.57%	−0.82%	−5.40%	–	O=C(O)/C=C/c1ccc(O)cc1 [p-Coumaric acid, p-coumaric acid]
